Converted amounts (≈) assume the structure as drawn. The source made the active and inactive calls. The rule behind the calls is not given here.
Experiments:
HT-29 [1] = assay: Cytotoxicity against human HT-29 cells after 24 hrs; type: functional, cell-based; settings: HT-29, 24 h
A2780 [2] = assay: Cytotoxicity against human A2780 cells after 24 hrs; type: functional, cell-based; settings: A2780, 24 h
MCF7 [3] = assay: Cytotoxicity against doxorubicin-resistant human MCF7 cells after 24 hrs; type: functional, cell-based; settings: MCF7, 24 h
HT-29 [4] = assay: Cytotoxicity against SN38-resistant human HT-29 cells after 24 hrs; type: functional, cell-based; settings: HT-29, 24 h
A2780 [5] = assay: Cytotoxicity against doxorubicin-resistant human A2780 cells after 24 hrs; type: functional, cell-based; settings: A2780, 24 h
A2780 [6] = assay: Cytotoxicity against cisplatin-resistant human A2780 cells after 24 hrs; type: functional, cell-based; settings: A2780, 24 h
HCT-8 [7] = assay: Cytotoxicity against human HCT8 cells after 24 hrs; type: functional, cell-based; settings: HCT-8, 24 h
[8] = Cytotoxicity against cisplatin-resistant human LAN1 cells after 24 hrs; type: functional, cell-based; settings: LAN1, 24 h
LNCaP [9] = assay: Cytotoxicity against etoposide-resistant human LNCAP cells after 24 hrs; type: functional, cell-based
HEK293 = assay: Cytotoxicity against HEK293 cells after 24 hrs; type: cell-based; settings: Homo sapiens, HEK293, 24 h
HCT-8 [10] = assay: Cytotoxicity against SN38-resistant human HCT8 cells after 24 hrs; type: functional, cell-based; settings: HCT-8, 24 h
LNCaP [11] = assay: Cytotoxicity against human LNCAP cells after 24 hrs; type: functional, cell-based
HCT-8 [12] = assay: Cytotoxicity against raltitrexed-resistant human HCT8 cells after 24 hrs; type: functional, cell-based; settings: HCT-8, 24 h
MCF7 [13] = assay: Cytotoxicity against human MCF7 cells after 24 hrs; type: functional, cell-based; settings: MCF7, 24 h
PC-3 = assay: Cytotoxicity against human PC3 cells after 24 hrs; type: functional, cell-based; settings: PC-3, 24 h
[14] = Cytotoxicity against human LAN1 cells after 24 hrs; type: functional, cell-based; settings: LAN1, 24 h
[15] = Cytotoxicity against human […] cells after 24 hrs; type: cell-based
[16] = Cytotoxicity against etoposide-resistant human LAN1 cells after 24 hrs; type: functional, cell-based; settings: LAN1, 24 h
HT-29 [17] = assay: Cytotoxicity against 5-FU-resistant human HT-29 cells after 24 hrs; type: functional, cell-based; settings: HT-29, 24 h
NCI-H460 = assay: Cytotoxicity against human H460 cells after 24 hrs; type: functional, cell-based; settings: NCI-H460, 24 h
[18] = Cytotoxicity against 5-FU-resistant human LAN1 cells after 24 hrs; type: functional, cell-based; settings: LAN1, 24 h
K562 = assay: Cytotoxicity against human K562 cells after 24 hrs; type: functional, cell-based; settings: K562, 24 h
[19] = Cytotoxicity against cisplatin-resistant human M51 cells after 24 hrs; type: functional, cell-based; settings: M51, 24 h
Jurkat = assay: Cytotoxicity against human Jurkat cells after 24 hrs; type: functional, cell-based
MCF7 [20] = assay: Cytotoxicity against 5-FU-resistant human MCF7 cells after 24 hrs; type: functional, cell-based; settings: MCF7, 24 h
[21] = Cytotoxicity against human M51 cells after 24 hrs; type: functional, cell-based; settings: M51, 24 h
[22] = Antimetastatic activity in mouse EAC cells xenografted in NMRI mouse assessed as metastatic colony formation in lungs at 20 mg/kg, ip daily for 9 days relative to control; type: functional, Ehrlich; settings: route intraperitoneal
HCT-8 [23] = assay: Decrease in multidrug-resistant related protein gene expression in human HCT8 cells at 2.5 times IC50 after 24 hrs by RT-PCR; type: functional, cell-based
HCT-8 [24] = assay: Induction of late apoptosis in [14C]D-thymidine labeled human HCT8 cells assessed DNA fragmentation treated at 10 times IC50 for 8 hrs measured after 24 hrs by liquid scintillation counter; type: functional, cell-based
HCT-8 [25] = assay: Decrease in EGF receptor gene expression in human HCT8 cells at 2.5 times IC50 after 24 hrs by RT-PCR; type: functional, cell-based
HCT-8 [26] = assay: Induction of late apoptosis in [14C]D-thymidine labeled human HCT8 cells assessed DNA fragmentation treated at 2.5 times IC50 for 8 hrs measured after 24 hrs by liquid scintillation counter; type: functional, cell-based
[27] = target: DNA polymerase I, thermostable (Thermus aquaticus, UniProt P19821); assay: Inhibition of Taq DNA polymerase
Chain of DNA polymerase I, thermostable (P19821 whole entry): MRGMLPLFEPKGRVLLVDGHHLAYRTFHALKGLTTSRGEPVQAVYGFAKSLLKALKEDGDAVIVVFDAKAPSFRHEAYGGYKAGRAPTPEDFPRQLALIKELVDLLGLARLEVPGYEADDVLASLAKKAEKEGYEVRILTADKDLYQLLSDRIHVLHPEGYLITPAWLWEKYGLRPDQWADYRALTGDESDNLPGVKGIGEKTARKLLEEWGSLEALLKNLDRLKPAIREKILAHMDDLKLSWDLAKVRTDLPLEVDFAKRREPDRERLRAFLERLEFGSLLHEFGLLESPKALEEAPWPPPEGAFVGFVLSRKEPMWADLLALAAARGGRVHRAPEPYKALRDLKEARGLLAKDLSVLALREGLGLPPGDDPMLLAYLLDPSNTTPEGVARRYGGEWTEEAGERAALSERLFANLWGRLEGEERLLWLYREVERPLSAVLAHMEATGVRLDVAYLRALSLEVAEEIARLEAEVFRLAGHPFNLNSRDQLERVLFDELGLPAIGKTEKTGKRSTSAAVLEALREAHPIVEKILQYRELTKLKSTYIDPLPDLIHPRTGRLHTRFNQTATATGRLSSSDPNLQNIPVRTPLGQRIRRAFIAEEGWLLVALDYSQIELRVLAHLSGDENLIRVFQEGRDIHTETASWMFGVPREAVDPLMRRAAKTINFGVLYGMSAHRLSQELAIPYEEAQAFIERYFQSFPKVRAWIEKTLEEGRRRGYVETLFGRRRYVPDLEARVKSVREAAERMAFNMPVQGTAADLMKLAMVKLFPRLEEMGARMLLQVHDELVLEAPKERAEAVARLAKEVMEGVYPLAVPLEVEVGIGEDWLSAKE

HCT-8 [28] = assay: Cell cycle arrest in human HCT8 cells assessed as accumulation at G0/G1 phase at IC50 after 24 hrs by FACS analysis relative to control; type: functional
[29] = target: T1, DNA topoisomerase 1 (Homo sapiens) (UniProt P11387); assay: Inhibition of human topoisomerase 1-mediated relaxation of supercoiled pBR322 DNA up to 6.25 ug/mL after 30 mins by agarose gel electrophoresis
T1 sequence (whole entry): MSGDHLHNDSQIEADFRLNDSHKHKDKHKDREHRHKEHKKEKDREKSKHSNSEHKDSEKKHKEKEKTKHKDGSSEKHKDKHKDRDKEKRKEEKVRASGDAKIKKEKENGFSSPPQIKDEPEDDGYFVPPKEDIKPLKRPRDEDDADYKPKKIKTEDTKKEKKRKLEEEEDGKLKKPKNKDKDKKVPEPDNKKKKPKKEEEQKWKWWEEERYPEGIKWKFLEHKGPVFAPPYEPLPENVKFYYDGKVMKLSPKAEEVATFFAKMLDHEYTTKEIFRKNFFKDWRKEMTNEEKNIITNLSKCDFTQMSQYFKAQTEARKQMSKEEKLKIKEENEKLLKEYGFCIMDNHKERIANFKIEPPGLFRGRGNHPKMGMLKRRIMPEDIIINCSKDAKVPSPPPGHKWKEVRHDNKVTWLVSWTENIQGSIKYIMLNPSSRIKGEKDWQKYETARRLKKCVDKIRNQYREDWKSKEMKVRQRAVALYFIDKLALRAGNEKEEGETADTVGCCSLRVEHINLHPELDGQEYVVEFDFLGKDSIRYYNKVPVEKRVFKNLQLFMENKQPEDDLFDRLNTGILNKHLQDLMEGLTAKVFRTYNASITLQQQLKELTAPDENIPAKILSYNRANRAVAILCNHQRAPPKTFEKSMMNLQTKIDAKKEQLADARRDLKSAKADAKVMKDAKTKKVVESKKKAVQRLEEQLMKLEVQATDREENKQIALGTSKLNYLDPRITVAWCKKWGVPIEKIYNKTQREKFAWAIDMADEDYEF

[30] = target: T1, DNA topoisomerase 1 (Homo sapiens); assay: Inhibition of human topoisomerase 1-mediated relaxation of supercoiled pBR322 DNA up to 12.5 ug/mL after 30 mins by agarose gel electrophoresis
HCT-8 [31] = assay: Cell cycle arrest in human HCT8 cells assessed as accumulation at G2/M phase at IC50 after 24 hrs by FACS analysis relative to control; type: functional
HCT-8 [32] = assay: Decrease in topoisomerase 2 beta gene expression in human HCT8 cells at 2.5 times IC50 after 24 hrs by RT-PCR; type: functional, cell-based
HCT-8 [33] = assay: Cell cycle arrest in human HCT8 cells assessed as accumulation at S phase at IC50 after 24 hrs by FACS analysis relative to control; type: functional
[34] = Inhibition of HIV reverse transcriptase; parameters: species or system Human immunodeficiency virus
[35] = Inhibition of Moloney murine leukemia virus reverse transcriptase

Row | Compound | IC50 (HT-29 [1]) [µg/mL] | IC50 (A2780 [2]) [µg/mL] | IC50 (MCF7 [3]) [µg/mL] | IC50 (HT-29 [4]) [µg/mL] | IC50 (A2780 [5]) [µg/mL] | IC50 (A2780 [6]) [µg/mL] | IC50 (HCT-8 [7]) [µg/mL] | IC50 [8] [µg/mL] | IC50 (LNCaP [9]) [µg/mL] | IC50 (HEK293) [µg/mL] | IC50 (HCT-8 [10]) [µg/mL] | IC50 (LNCaP [11]) [µg/mL] | IC50 (HCT-8 [12]) [µg/mL] | IC50 (MCF7 [13]) [µg/mL] | IC50 [14] [µg/mL] | IC50 [15] [µg/mL] | IC50 [16] [µg/mL] | IC50 (HT-29 [17]) [µg/mL] | IC50 (NCI-H460) [µg/mL] | IC50 [18] [µg/mL] | also measured
1 | CC(C)=CCC1=C(O)[C@@]2(C(=O)c3ccccc3)C(=O)[C@](CC=C(C)C)(C[C@H](CC=C(C)C)C2(C)C)C1=O | 5.25 (≈ 10.4 µM) | 9.2 (≈ 18.3 µM) | 4.28 (≈ 8.51 µM) | 3.5 (≈ 6.96 µM) | 6.75 (≈ 13.4 µM) | 6.23 (≈ 12.4 µM) | 4.23 (≈ 8.41 µM) | 8.44 (≈ 16.8 µM) | 1.81 (≈ 3.6 µM) | 4.2 (≈ 8.35 µM) | 4.07 (≈ 8.1 µM) | 2.12 (≈ 4.22 µM) | 4.44 (≈ 8.83 µM) | 4.37 (≈ 8.69 µM) | 8.2 (≈ 16.3 µM) | 21.7 (≈ 43.2 µM) | 9.18 (≈ 18.3 µM) | 5.18 (≈ 10.3 µM) | 4.21 (≈ 8.37 µM) | 8.24 (≈ 16.4 µM) | IC50 (PC-3): 2.01 µg/mL (≈ 4 µM); IC50 (K562): 4.2 µg/mL (≈ 8.35 µM); IC50 [19]: 4.77 µg/mL (≈ 9.49 µM); IC50 (Jurkat): 4.6 µg/mL (≈ 9.15 µM); IC50 (MCF7 [20]): 3.3 µg/mL (≈ 6.56 µM); IC50 [21]: 5.7 µg/mL (≈ 11.3 µM)
2 | O=c1[nH]cc(F)c(=O)[nH]1 [FLUOROURACIL] |  |  |  |  |  |  |  |  |  |  |  |  |  |  |  |  |  |  |  |  | Activity [22]: 23.8%
3 | COc1ccc([C@H]2COc3cc(O)ccc3C2)c(OC)c1O [MUCRONULATOL] |  |  | > 50 |  |  |  | 2.6 (≈ 8.6 µM) | 10.2 (≈ 33.8 µM) |  | 2.5 (≈ 8.27 µM) |  |  |  | 2.52 (≈ 8.34 µM) | 10.1 (≈ 33.4 µM) |  | > 50 |  |  | 8.22 (≈ 27.2 µM) | 
4 | CC(C)=CC[C@]12C[C@@H]3[C@H](C=C(C)C)[C@](CC=C(C)C)(C1=O)C(=O)[C@](C(=O)c1ccccc1)(C2=O)C3(C)C [PLUKENETIONE A] | 12 (≈ 24 µM) | 13.3 (≈ 26.6 µM) | 15 (≈ 29.9 µM) | 13.3 (≈ 26.6 µM) | 14.5 (≈ 28.9 µM) | 15.9 (≈ 31.8 µM) | 12.9 (≈ 25.8 µM) |  | 1.72 (≈ 3.44 µM) | 32.1 (≈ 64.1 µM) | 11.7 (≈ 23.3 µM) | 1.98 (≈ 3.95 µM) | 12.1 (≈ 24.2 µM) | 16.3 (≈ 32.5 µM) |  | 15.7 (≈ 31.4 µM) |  | 14.2 (≈ 28.4 µM) | 13.4 (≈ 26.8 µM) |  | Activity (HCT-8 [23]): Active; Activity (HCT-8 [24]): Active; Activity (HCT-8 [25]): Active; Activity (HCT-8 [26]): Active; IC50 [27]: 12.5 µM; Activity (HCT-8 [28]): 52.1%; Activity [29]: Active; Activity [30]: Active; Activity (HCT-8 [31]): 20.6%; Activity (HCT-8 [32]): Active; Activity (HCT-8 [33]): 4.3%; IC50 [19]: 7.6 µg/mL (≈ 15.2 µM); IC50 (Jurkat): 5.28 µg/mL (≈ 10.5 µM); IC50 [34]: 1.5 µg/mL (≈ 3 µM); IC50 (MCF7 [20]): 10 µg/mL (≈ 20 µM); IC50 [21]: 6.53 µg/mL (≈ 13 µM); IC50 [35]: 1.5 µg/mL (≈ 3 µM)

Reference: ChEMBL document CHEMBL1152284, “The contribution of plukenetione A to the anti-tumoral activity of Cuban propolis” (Bioorg Med Chem, 2008)
